Reference: patent US8669232B2, “Flavonol compounds, a bioactive extract/fraction from Ulmus wallichiana and its compounds for prevention for treatment of osteo-health related disorders” (Council of Scientific & Industrial Research, priority 2008, dated 2014)

Columns and labels:
Ishikawa cells = assay: In vitro estrogenicity / anti-estrogenicity (ALP induction); type: cell-based, human; settings: 72 h; for inhibition of increase in ALP activity stimulated by 17β-estradiol (anti-estrogenicity): 10^−11 to 10^−6 M with 10^−8 M 17β-estradiol; for ALP levels (estrogenicity): 10^−11 to 10^−6 M
Procedure: The expression of alkaline phosphatase is induced in Ishikawa cells in response to estrogen or estrogen like substances (Littlefield et al, Endocrinology. 1990 December; 127(6):2757-62.). Ishikawa cells were plated in 96-well flat bottomed microtiter plates at a density of 5000 cells/well and cultured in phenol red free DMEM containing 10% charcoal treated FCS. After 24 h of plating, cells were serum-starved for 12 h. Thereafter, for testing estrogenicity of compounds, the cells were treated with different concentrations (10^−6 to 10^−11 M) of pure compounds K058 and K012. Same concentrations of Raloxifene were also used for comparison. Estrogen concentration of 10^−8 M was used as a positive control. Compound treatments were performed for 72 h at 37° C. in CO2 incubator. Experiments were repeated 4 times. For the anti-estrogenicity studies, the compounds K012 and K058 at 10^−6 to 10^−11 M were added with 10^−8 M estrogen. After 72 h of incubation, the media was removed and the plates were washed twice with PBS and dried by tapping, gently. Freeze fracture of cells was achieved by placing the plates at −70° C. for 15, min followed by bringing to room temperature. The plates were then placed on ice and 50 μl of ice cold diethanolamine solution (5 mM P-nitrophenyl phosphate (PNP) and 0.25 mM MgCl2 in 1 M diethanolamine) was added to each well. The plates were then placed at 37° C. for 30 minutes for color (yellow) development is a function of ALP activity. Absorbance was measured at 405 nm.

calvarial osteoblasts = assay: BrdU cell proliferation assay; type: cell-based, neonatal Sprague-Dawley rats
Procedure: Neonatal rat calvarial cell cultures are prepared as described previously (Chattopadhyay et al., Endocrinology 145:3451-62, 2004) using slight modification. Briefly, for calvarial osteoblast cultures, frontal and parietal bones from neonatal Sprague-Dawley rats (1-3 day old) were digested in 0.1% collagenase/0.1% dispase in α-MEM to obtain 5 sequential digests. The second through fifth digests are combined and grown to confluence at 37° C. and 5% CO2 in air in α-MEM, supplemented with 10% fetal bovine serum (FBS), 2 mM glutamine, 100 U/ml penicillin-streptomycin, non-essential amino acid solution and sodium pyruvate.
BrdU assay is used to measure cell proliferation based on the incorporation of BrdU during DNA synthesis in proliferating cells (Chattopadhyay et al., Endocrinology 145:3451-62, 2004). […] Cells were allowed to attach for 24 h and after that cells were starved in 0.5% FCS containing α-MEM medium followed by treatment of K058 at various concentrations for 24 hrs following which cell proliferation was determined by BrdU ELISA method as described by the manufacturer (Roche Biochemicals, Rotkreuz, Switzerland). […] BrdU incubation was carried out for 4 h, cells were fixed and denatured and subsequently treated with anti-BrdU antibody and the immune complexes were detected by the substrate reaction. Absorbance was measured at 370 nm.

[1] = tested on: ovariectomized Sprague Dawley rats; assay: BMD by DEXA in ovariectomized (Ovx) rats, bone loss model; type: in vivo; settings: 90 days, compared with Ovx + vehicle; for BMD tibia head: 5 mg/kg body weight oral daily
Procedure: Bone mineral density of femur (global, head, neck), tibia (global, head, tibio-fibular separation point) and lumber vertebra (LV1, LV2, LV3, LV4) was determined by DEXA.
(§1) K058 at 1 to 10 mg/kg body weight were given daily by oral route to Sprague Dawley (180-200 g) rats after bilateral ovariectomy (Ovx). This is the most widely used animal model for osteopenia (bone loss) mimicking human condition of post-menopausal bone loss. The extract was given in gum acacia (vehicle). Sham operated rats and Ovx rats were used as controls and given only gum acacia. Each group consisted of 10 rats and the groups were as follows: sham intact, Ovx, Ovx+1 mg/kg K058 and Ovx+5 mg/kg K058. Treatment started 24 h after the surgery and continued for 90 days. After 90 days, the rats were first acclimatized and then kept in metabolic cages with no food but only water for 24 h to collect urine samples. After 24 h, rats were returned to the cages with food and water ad libitum with oral administration of the extract as before foe an additional 24 hour. Rats were then euthanized and autopsied to collect blood, bones (tibia, femur, L1-L4 vertebrae) and uterus.
as §1, with “K012” for “K058”, “doses of 1- and 5” for “1 to 10”, “(Ovx).” for “(Ovx). This is the most widely used animal model for osteopenia (bone loss) mimicking human condition of post-menopausal bone loss.”, “K012.” for “K058.”, “for” for “foe”

[2] = 5.0 mg/kg body weight oral daily

SMILES	inhibition of increase in ALP activity stimulated by 17β-estradiol (anti-estrogenicity) (Ishikawa cells)	ALP levels (estrogenicity) (Ishikawa cells)	osteoblast proliferation (summary of in vitro effects) (calvarial osteoblasts)	BMD tibio-fibular separation point (TFSP) ([1]; 1.0 mg/kg body weight oral daily)	BMD tibia head [1]	BMD lumber vertebra global [1, 2]	BMD second lumber vertebra [1, 2]	BMD femur neck ([1]; 5.0 mg/kg oral daily)	BMD tibia global ([1]; 5.0 mg/kg oral daily)	BMD tibio-fibular separation point (TFSP) ([1]; 5.0 mg/kg oral daily)	BMD L4 vertebra ([1]; 1.0&5.0 mg/kg body weight oral daily)	BMD femur global ([1]; 1.0-5.0 mg/kg oral daily)	BMD femur neck ([1]; 1.0-5.0 mg/kg oral daily)	BMD femur shaft ([1]; 1.0-5.0 mg/kg oral daily)
O=c1c(O)c(-c2ccc(O)c(O)c2)oc2cc(O)c(C3O[C@H](CO)[C@@H](O)[C@H](O)[C@H]3O)c(O)c12 (stereo partly drawn) [K012, 6-Glucopyranosyl-3,3′,4′,5,7-pentahydroxyflavone]	did not inhibit	no increase	promoted	increase	significantly higher	higher	higher	significantly higher	significantly higher	significantly higher				
O=C1c2c(cc(O)c([C@@H]3OC(CO)[C@@H](O)[C@H](O)C3O)c2O)O[C@@H](c2ccc(O)c(O)c2)[C@@H]1O (stereo partly drawn) [K058, (2S,3S)-(+)-3′,4′,5,7-tetrahydroxydihydroflavonol-6-C-β-D-glucopyranoside]	did not inhibit	no increase	promoted		increased						higher	significantly higher	significantly higher	significantly higher
